Data: US4352802A, “Bicyclo[3.3.1]nonyl-benzamide” (Beecham Group Limited, priority 1980, dated 1982)

Columns and labels:
Assay type in all cases: in vivo
[1] = test system: inhibitory effect of 6,7-ADTN on gastric motility; experiment: Gastric motility testing in the rat (reversal of 6,7-ADTN inhibition); details: conscious chronic gastric fistula rat, 1 mg/kg s.c., 10 minutes after 6,7-ADTN 1 mg/kg s.c.
Description: III. Gastric Motility Testing in the rat
The compounds were tested for ability to reverse the inhibitory effect of 6,7-ADTN on gastric motility as recorded by an open tipped catheter in the conscious chronic gastric fistula rat. Administration of 1 mg/kg s.c. of 6,7-ADTN reduced basal gastric motor activity and this was reversed by the administration of the compound administered 10 minutes after the 6,7-ADTN. […] For subcutaneous testing the compound was dissolved in water by the addition of tartaric acid (1/2 mole per mole of compound).

[2] = test system: vomiting response to apomorphine HCl; experiment: Anti-emetic activity in the dog (apomorphine-induced vomiting); details: Canis lupus familiaris, sc, 30 minutes prior to apomorphine HCl 0.1 mg/kg s.c.
Description: I. Anti-emetic activity in the dog
Compounds were administered subcutaneously 30 minutes prior to administration of a standard dose of apomorphine HCl (0.1 mg/kg subcutaneously) and the vomiting response compared to that obtained when the same animals were dosed with apomorphine HCl and vehicle only.

Dopamine Receptor [3] = experiment: Inhibition of apomorphine induced climbing in the mouse (dopamine receptor blocking activity in the central nervous system); details: s.c., apomorphine 1 mg/kg s.c., not necessarily the lowest active dose
Dopamine Receptor [4] = experiment: as above; details: p.o., apomorphine 1 mg/kg s.c., not necessarily the lowest active dose
Description: II. Dopamine Receptor Blocking Activity in the Central Nervous System
Compounds were tested for inhibition of apomorphine induced climbing in the mouse. The test is based on that described by Protais, P., Constantin, J. and Schwartz J. C. (1976), Psychopharmacology, 50, 1-6.
Apomorphine 1 mg/kg s.c. induces mice to climb the wall of a wire cage (inverted food hopper-11×7.5×18 cm high). Mice acclimatised in their home cages in groups of 5 are placed under the hoppers immediately after the injection of apomorphine 1 mg/kg s.c. At 10,20 and 30 minutes after injection climbing behaviour is scored. The mice are observed for 30 seconds and scored according to the position they spend the majority of time in, score 0--four paws on floor of cage; score 1--[…]; score 2--all paws on wall of cage. The scores at all 3 times and for each mouse are summed and mice drug treated orally compared to mice receiving apomorphine only. A saline only treated group is also included and any score, generally <5% of maximum taken into account.

## COc1ccc(S(C)(=O)=O)cc1C(=O)N[C@@H]1C[C@H]2CSC[C@@H](C1)N2Cc1ccccc1 [Compound 5, 2-Methoxy-5-methylsulphonyl-N-[9-benzyl-9-aza-3-thiabicyclo (3,3,1)nonan-7β-yl]benzamide]
[1]
  Reversal of the action of 6,7-ADTN on gastric motility: reversed the action of 6,7-ADTN
[2]
  ED50: 0.1 mg/kg
Dopamine Receptor [3]
  Active Dose (inhibition of apomorphine induced climbing): 50 mg/kg

## COc1cc(NC(C)=O)c(Cl)cc1C(=O)N[C@@H]1C[C@H]2COC[C@@H](C1)N2Cc1ccccc1 [Compound 1, 2-Methoxy-5-chloro-4-acetamido-N-[9-benzyl-9-aza-3-oxabicyclo(3,3,1)nonan-7β-yl]-benzamide]
Dopamine Receptor [4]
  Active Dose (inhibition of apomorphine induced climbing): 2 mg/kg

## CCCCCCN1[C@@H]2COC[C@H]1C[C@H](NC(=O)c1cc(Cl)c(N)cc1OC)C2 [Compound 23, 2-Methoxy-5-chloro-4-amino[N-(9-(n-hexyl)-9-aza-3-oxabicyclo(3,3,1)nonan-7β-yl)]benzamide]
Dopamine Receptor [4]
  Active Dose (inhibition of apomorphine induced climbing): 10 mg/kg

## COc1cc(N)c(Cl)cc1C(=O)N[C@@H]1C[C@H]2COC[C@@H](C1)N2Cc1ccc(Cl)c(Cl)c1 [Compound 20, 2-Methoxy-5-chloro-4-amino-[N-(9-(3,4-dichlorobenzyl)-9-aza-3-oxabicyclo(3,3,1)nonan-7β-yl)]benzamide]
Dopamine Receptor [4]
  Active Dose (inhibition of apomorphine induced climbing): 10 mg/kg

## COc1ccc(CN2[C@@H]3COC[C@H]2C[C@H](NC(=O)c2cc(Cl)c(N)cc2OC)C3)cc1 [Compound 19, 2-Methoxy-5-chloro-4-amino-[N-(9-(4-methoxybenzyl)9-aza-3-oxabicyclo(3,3,1)nonan-7β-yl)]benzamide]
Dopamine Receptor [4]
  Active Dose (inhibition of apomorphine induced climbing): 10 mg/kg

## COc1cccc(C(=O)N[C@@H]2C[C@H]3COC[C@@H](C2)N3Cc2ccccc2)c1OC [Compound 6, 2,3-Dimethoxyj-[N-(9-benzyl-9-aza-3-oxabicyclo(3,3,1)nonan-7β-yl)]benzamide]
Dopamine Receptor [4]
  Active Dose (inhibition of apomorphine induced climbing): 2 mg/kg

## COc1cc(N)c(Cl)cc1C(=O)N[C@@H]1C[C@H]2COC[C@@H](C1)N2Cc1cccs1 [Compound 24, 2-Methoxy-5-chloro-4-amino-[N-(9-(2-thenyl)-9-aza-3-oxabicyclo(3,3,1)nonan-7β-yl)]benzamide]
Dopamine Receptor [4]
  Active Dose (inhibition of apomorphine induced climbing): 10 mg/kg

## COc1cc(N)c(Cl)cc1C(=O)N[C@@H]1C[C@H]2COC[C@@H](C1)N2Cc1ccc(Cl)cc1 [Compound 18, 2-Methoxy-5-chloro-4-amino-[N-(9-(4-chlorobenzyl)-9-aza-3-oxabicyclo(3,3,1)nonan-7β-yl)]benzamide]
Dopamine Receptor [4]
  Active Dose (inhibition of apomorphine induced climbing): 10 mg/kg

## COc1cc(N)c(Cl)cc1C(=O)N[C@@H]1C[C@H]2COC[C@@H](C1)N2CC1CCCCC1 [Compound 26]
Dopamine Receptor [4]
  Active Dose (inhibition of apomorphine induced climbing): 10 mg/kg

## COc1cc(N)c(Cl)cc1C(=O)N[C@@H]1C[C@H]2COC[C@@H](C1)N2Cc1cccc(C(F)(F)F)c1 [Compound 21, 2-Methoxy-5-chloro-4-amino-[N-(9-(3-trifluoromethylbenzyl)-9-aza-3-oxabicyclo(3,3,1)nonan-7β-yl)]benzamide]
Dopamine Receptor [4]
  Active Dose (inhibition of apomorphine induced climbing): 50 mg/kg

## COc1cc(N)c(Cl)cc1C(=O)N[C@@H]1C[C@H]2COC[C@@H](C1)N2CCC(C)C [Compound 25, 2-Methoxy-5-chloro-4-amino-[N-(9-(3-methylbutyl)-9-aza-3-oxabicyclo(3,3,1)nonan-7β-yl)]benzamide]
Dopamine Receptor [4]
  Active Dose (inhibition of apomorphine induced climbing): 10 mg/kg

## COc1cc(N)c(Cl)cc1C(=O)N[C@@H]1C[C@H]2COC[C@@H](C1)N2Cc1ccc(C)cc1 [Compound 22, 2-Methoxy-5-chloro-4-amino-[N-(9-(4-methylbenzyl)-9-aza-3-oxabicyclo(3,3,1)nonan-7β-yl)]benzamide]
Dopamine Receptor [4]
  Active Dose (inhibition of apomorphine induced climbing): 10 mg/kg

## COc1cc(N)c(Cl)cc1C(=O)N[C@@H]1C[C@H]2COC[C@@H](C1)N2Cc1ccccc1 [Compound 2, 2-Methoxy-5-chloro-4-amino-N-[9-benzyl-9-aza-3-oxabicyclo(3,3,1)nonan-7β-yl]-benzamide]
[1]
  Reversal of the action of 6,7-ADTN on gastric motility: reversed the action of 6,7-ADTN
[2]
  ED50: 0.005 mg/kg
Dopamine Receptor [4]
  Active Dose (inhibition of apomorphine induced climbing): 1 mg/kg
